# PubChem BioAssay AID1259321 (Sanford-Burnham Center for Chemical Genomics, 2017)
# The source made the active and inactive calls.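 How the source made its calls: active means half-maximal concentration for changing protein binding to DNA, from the fitted dose curve, below 10 micromolar; inactive means the rest.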
# Target: Nuclear receptor subfamily 1 group D member 1 (Homo sapiens) (UniProt P20393)
# Test: Rev-erbα–DNA interaction modulators – biochemical, FITC-DNA, fluorescence polarization, dose response (AID 1259321)
# Conditions: Rev-erb alpha-FITC-DNA binding
# Sequence of Nuclear receptor subfamily 1 group D member 1 (Homo sapiens) (P20393 whole entry, looked up): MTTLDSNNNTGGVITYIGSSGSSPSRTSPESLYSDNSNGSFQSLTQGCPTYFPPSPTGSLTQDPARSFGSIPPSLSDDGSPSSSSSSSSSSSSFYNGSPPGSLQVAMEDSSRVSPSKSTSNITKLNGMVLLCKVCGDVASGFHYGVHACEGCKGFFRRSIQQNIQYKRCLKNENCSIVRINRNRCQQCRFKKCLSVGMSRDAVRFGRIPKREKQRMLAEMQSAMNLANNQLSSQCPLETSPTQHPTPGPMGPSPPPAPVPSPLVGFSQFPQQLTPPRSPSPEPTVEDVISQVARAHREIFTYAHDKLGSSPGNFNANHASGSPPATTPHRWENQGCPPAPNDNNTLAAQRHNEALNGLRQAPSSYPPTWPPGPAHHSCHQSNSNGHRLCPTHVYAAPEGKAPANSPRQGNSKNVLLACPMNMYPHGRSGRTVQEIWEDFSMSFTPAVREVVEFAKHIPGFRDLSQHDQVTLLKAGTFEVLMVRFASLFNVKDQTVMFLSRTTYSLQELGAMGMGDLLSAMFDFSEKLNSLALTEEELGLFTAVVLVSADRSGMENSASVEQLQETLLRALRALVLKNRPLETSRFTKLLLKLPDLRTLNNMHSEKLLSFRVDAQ
row,Structure (SMILES),IC50
1,CCOC(=O)CSc1nc2cc3c(cc2cc1C#N)OCO3,> 40 µM (inactive)
2,Cc1sc2nc(SCC(=O)NCc3ccco3)n(CCc3ccccc3)c(=O)c2c1C,> 40 µM (inactive)
3,COc1cc2c3nnc(-c4ccc(F)cc4)c-3cn(Cc3ccccc3F)c2cc1OC,1.98 µM
4,COc1ccc2cc(C(=O)Nc3ccc(S(N)(=O)=O)cc3)sc(=O)c2c1OC,3.03 µM
5,C[n+]1ccc(/C=C/c2c[nH]c3ccc(F)cc23)cc1,> 40 µM (inactive)
6,CC(=O)Nc1sc(C)c(C)c1C(=O)OCC(=O)N(Cc1ccccc1)C(C)C,inactive
7,CC1=Nc2ccccc2/C1=C/c1sc(=S)n(-c2cccc(C(=O)O)c2)c1O,> 40 µM (inactive)
8,COc1cc(SC)ccc1C(=O)Nc1ccc(Cl)cn1,4.58 µM
9,CC1=NN(c2ccccc2)C(=O)/C1=C\C=C1/N(C)c2ccccc2C1(C)C,> 40 µM (inactive)
10,CCCCOc1ccc(C(=O)n2ccc3ccc(-c4ccc5ccn(Cc6ccccc6)c5c4)cc32)cc1,> 40 µM (inactive)
11,COC(=O)c1cccc(Cn2ccc3ccc(-c4ccc5ccn(C(=O)c6cccc(OC)c6)c5c4)cc32)c1,> 40 µM (inactive)
12,CCc1cc2ccc(OC)cc2nc1SCC(=O)Nc1cc(C)on1,> 40 µM (inactive)
13,Cc1ccc2nc(N3CCN(S(=O)(=O)c4ccc(C)c(Cl)c4)CC3)c(C#N)cc2c1,3.31 µM
14,COc1ccc(C2C(C#N)=C(C)NC3=C2C(=O)c2ccccc23)cc1 (stereo not drawn),inactive
15,CN1C(=O)c2ccc(C(=O)Nc3ccc(Br)cn3)cc2C1=O,> 40 µM (inactive)
16,COc1ccccc1N1C(=O)c2cccc3c(N(C)CCO)ccc(c23)C1=O,8.2 µM
17,CN1C(=O)C(=Cc2ccc(N3CCCCCC3)o2)C(=O)N(C)C1=S,inactive
18,N#Cc1c(N)nc(Sc2ccc(Cl)cc2)c(C#N)c1-c1ccccc1Cl,6.32 µM
19,COC(=O)c1cc2cc(Cl)ccc2nc1SC,2.53 µM
20,COc1cc2[nH]c(=S)nc(NCCc3ccc(C)cc3)c2cc1OC,> 40 µM (inactive)
21,CCOc1cccc2sc(NC(=O)c3ccc(Br)s3)nc12,> 40 µM (inactive)
22,CN(C)c1ccc2nc3c(=O)[nH]c(=O)nc-3n(CC(O)C(O)C(O)CO)c2c1 (stereo not drawn),0.801 µM
23,O=C(OCC(=O)N1CCN(S(=O)(=O)c2ccc(Cl)cc2)CC1)c1cc(Br)ccc1O,2.22 µM
24,CCCCOC(=O)CSc1nc(N)c(C#N)c(-c2ccc(OCC)cc2)c1C#N,inactive
25,Cc1ccc(NC(=O)CSc2nc3ccccc3nc2N2CCOCC2)c(C)c1,inactive
26,O=C(OCC(=O)c1c[nH]c2ccccc12)c1cc(Br)ccc1O,5.27 µM
27,Cc1cc2cc(C#N)c(SCC(=O)Nc3nonc3C)nc2cc1C,1.33 µM

row,Structure (SMILES),IC50
1,COc1ccccc1CNc1ncnc2cc(Cl)ccc12,2.42 µM
2,CC(=O)c1cc2c(cc1N/C(=N/S(=O)(=O)c1ccccc1)c1ccc(Cl)cc1)OCO2,inactive
3,COc1ccc2nc(SCC(=O)NC3CCCC3)c(C)cc2c1,4.48 µM
4,C=CCn1c(SCC(=O)Nc2cc(C)on2)nc2sc(C)c(C)c2c1=O,5.14 µM
5,CCN(CC)C(=O)Cn1c(C)c(/C=C/c2cc[n+](C)cc2)c2ccccc21,4.55 µM
6,COc1cccc(OC)c1-c1nn2c(-c3cc(-c4ccccc4)n[nH]3)nnc2s1,inactive
7,Cc1nc(SCc2nc3c(F)cccc3[nH]2)c2oc3ccccc3c2n1,> 40 µM (inactive)
8,C=CCn1c(=NC(=O)c2ccco2)sc2cc(C(=O)OC)ccc21,inactive
9,CC(=O)Oc1c(/C=C(\C#N)C(N)=O)[nH]c2ccccc12,2.18 µM
10,Cc1ccc2[nH]cc(/C=C/c3cc[n+](C)cc3)c2c1,> 40 µM (inactive)
11,COCCCNc1nc2c(-c3ccc(C)cc3)nnn2c2ccccc12,5.07 µM
12,Cn1c(=O)c(NCCc2ccccc2)c2c3c(cccc31)C(=O)c1ccccc1-2,inactive
13,COc1cc(N2N=C(c3ccccc3)CC2c2ccccc2)c(C=O)cc1C=O (stereo not drawn),4.6 µM
14,O=c1c2ccccc2n2c(-c3ccc(F)cc3)nnc2n1Cc1ccccc1,inactive
15,CCN1C(=O)/C(=C\N2CCN(c3ccc(F)cc3)CC2)SC1=S,> 40 µM (inactive)
16,O=C(CCCC(=O)OCC(=O)c1cccs1)Nc1ccc(Oc2ccccc2)cc1,inactive
17,Cc1coc2cc3oc(=O)c(Cc4ccccc4)c(C)c3cc12,inactive
18,COc1cc(-c2ccc3c(=O)c4ccccc4sc3c2)cc(OC)c1OC,2.86 µM
19,COc1ccc(C(=O)Nc2nc3ccc4nc(C)sc4c3s2)cc1,9.47 µM
20,C=CCn1c(SCCNC(C)=O)nc2cc(-c3ccccc3)sc2c1=O,inactive
21,CNc1ccc2c3c(cccc13)C(=O)N(C)C2=O,4.6 µM
22,O=C1c2cccc3c(N4CCCCC4)ccc(c23)C(=O)N1c1cccc(O)c1,> 40 µM (inactive)
23,COc1cc(OC)cc(-c2c(C#Cc3ccsc3)c3cc(-c4ccc(SC)cc4)ccc3n2C)c1,7.92 µM
24,Cc1ccc(-c2c(C#N)c(N)n(-c3ccc(Cl)cc3)c(=O)c2C#N)cc1,inactive
25,O=C1c2cccc3c(O)ccc(c23)C(=O)N1Cc1ccco1,inactive
26,COc1cc(/C=N/NC(=O)c2c(C)nc3ccc(Cl)cn23)cc(OC)c1OC,> 40 µM (inactive)
